# Data taken from US20240343677A1, “L-ASPARTIC ACID N, N-DIACETIC ACID TETRASODIUM SALT AND PREPARATION METHOD THEREFOR” (HEFEI ALL-PLUS ENVIRONMENTAL TECNOLOGY CO., LTD., priority 2021, published 2024).
# Legend:
# [1] = Biodegradability of ASDA in sewage according to OECD 301B standard; settings: 28 days, third-party detection, ASDA of Example 1
# Description: FIG. 1 is a graph of biodegradability detection results of ASDA prepared in Example 1 of the present disclosure tested in a stable sewage environment;
# 1. […] The detection was carried out by a third-party detection mechanism.
# [2] = Solubility in water of different pH values and in concentrated sodium hydroxide solution; type: physicochemical; settings: ASDA of Example 1
# From the text: It can also correspondingly reduce transportation and warehousing costs, and alleviate the problem of high transportation and warehousing costs.
# [3] = Description: FIG. 4 is a thermogravimetric analysis graph of the ASDA prepared in Example 1 of the present disclosure;
# 3. Thermal stability and application environment adaptability of the L-aspartic acid N,N-diacetic acid tetrasodium salt (ASDA) prepared by the preparation method provided in Example 1 were detected. […] The thermal stability of ASDA-Na4 powder was measured by thermogravimetric analysis (TGA) and differential scanning calorimetry (DSC).
# [4] = Chelating ability for metal ions compared with other chelating agents; type: physicochemical; settings: same condition as other chelating agents (FIG. 5)
# [5] = Efficiency of removing calcium carbonate water scales; settings: compared with other amino polymeric chelating agents (FIG. 6)
# From the text: 5. The ASDA can also be used for preventing water scale and precipitation and removing water scale.
28-day biodegradability [1],solubility under a strong alkali condition ([2]; concentrated sodium hydroxide solution (FIG. 3)),"solubility in low pH ([2]; water, low pH (FIG. 2))","moisture lost ([3]; ASDA solid, all moisture lost at about 250° C., TGA)","temperature above which rapid decomposition begins ([3]; ASDA-Na4 powder, TGA/DSC)",thermal stability (thermally more stable than ASDA) [3],SMILES,comprehensive performance in chelating metal ions [4],efficiency of removing CaCO3 scales [5]
≥ 60%,high solubility,high solubility,about 4%,above 380 °C,–,"O=C([O-])C[C@@H](C(=O)[O-])N(CC(=O)[O-])CC(=O)[O-].[Na+].[Na+].[Na+].[Na+] [ASDA, L-aspartic acid N,N-diacetic acid tetrasodium salt]",excellent,the best biodegradable chelate for removing CaCO3 scales
–,–,–,–,–,> 150 °C,"O=C(O)CN(CC(=O)O)CC(=O)O [NTA, nitrilotriacetic acid, reference compound]",–,–
–,–,–,–,–,> 150 °C,"O=C(O)CN(CCN(CC(=O)O)CC(=O)O)CC(=O)O [EDTA, ethylenediaminetetraacetic acid, reference compound]",–,–
